Target: T1, Cdk2(2-298) (Homo sapiens, UniProt P24941)
T1 construct: Biotinylated N-terminal avi-tagged Cdk2(2-298) or Cdk1(1-297) was immobilized
Assay: Surface Plasmon Resonance (SPR) compound interaction, Biacore 8K
Format: binding
Conditions: single-cycle kinetics (SCK, "S"), dissociation 1800 sec, read-out: Activity rating (KD)
Description: Compound interaction was profiled using a Biacore 8K instrument (Cytiva). Biotinylated N-terminal avi-tagged Cdk2(2-298) or Cdk1(1-297) was immobilized on a series S sensor Chip SA at a capture level between 2500 RU and 3000 RU (Cdk2) or 7000 RU (Cdk1) in buffer (25 mM HEPES, 150 mM NaCl, 0.05% Tween20, pH 7.5). A compound dilution plate (8 concentrations, 3-fold dilution) in DMSO was prepared (100× assay concentration). From this plate, compound DMSO stock solution was transferred into buffer, yielding a final DMSO concentration of 1% in assay. The remaining buffer was supplemented with 1% DMSO. Compounds were injected in a series of increasing concentrations in multi-cycle kinetics (MCK, “M”) or single-cycle kinetics (SCK, “S”) mode at a flow rate of 30 μl/min for 120 sec and dissociation was profiled for 180 sec (MCK) or 1800 sec (SCK). Data were analysed using Biacore Insight Evaluation Software (Cytiva).

Compound	Kd [µM]
N[C@H]1CC[C@H](Nc2nccc(-c3cc(C(F)(F)F)ccc3Oc3ccc(NS(=O)(=O)c4ccccc4Cl)cc3F)n2)CC1 [Compound 8, N-[4-[2-[2-[(1r,4r)(4-Aminocyclohexyl)amino]pyrimidin-4-yl]-4-(trifluoromethyl)phenoxy]-3-fluorophenyl] 2-chlorobenzenesulfonamide]	0.011 to 0.1
CC(C)(C)c1ccc(-c2ccnc(N[C@H]3CC[C@H](N)CC3)n2)c(Oc2ccc(NS(=O)(=O)c3ccccc3Cl)cc2F)c1 [Compound 11, N-[4-[2-[2-[(1r,4r)(4-Aminocyclohexyl)amino]pyrimidin-4-yl]-5-(1,1-dimethylethyl)phenoxy]-3-fluorophenyl] 2-chlorobenzenesulfonamide]	0.011 to 0.1
N[C@H]1CC[C@H](Nc2nccc(-c3ccc(C4CC4)cc3Oc3ccc(NS(=O)(=O)c4ccccc4Cl)cc3F)n2)CC1 [Compound 19, N-[4-[2-[2-[(1r,4r)(4-Aminocyclohexyl)amino]pyrimidin-4-yl]-5-cyclopropylphenoxy]-3-fluorophenyl] 2-chlorobenzenesulfonamide]	0.011 to 0.1
CC(C)c1ccc(-c2ccnc(N[C@H]3CC[C@H](N)CC3)n2)c(Oc2ccc(NS(=O)(=O)c3ccccc3Cl)cc2F)c1 [Compound 20, N-[4-[2-[2-[(1r,4r)(4-Aminocyclohexyl)amino]pyrimidin-4-yl]-5-(1-methylethyl)phenoxy]-3-fluorophenyl] 2-chlorobenzenesulfonamide]	0.011 to 0.1
N[C@H]1CC[C@H](Nc2nccc(-c3ccc(C4CCCCC4)cc3Oc3ccc(NS(=O)(=O)c4ccccc4Cl)cc3F)n2)CC1 [Compound 22, N-[4-[2-[2-[(1r,4r)(4-Aminocyclohexyl)amino]pyrimidin-4-yl]-5-cyclohexylphenoxy]-3-fluorophenyl] 2-chlorobenzenesulfonamide]	0.011 to 0.1
N[C@H]1CC[C@H](Nc2nccc(-c3cnccc3Oc3ccc(NS(=O)(=O)c4ccccc4Cl)cc3F)n2)CC1 [Compound 24, N-[4-[[3-[2-(1r,4r)[(4-aminocyclohexyl)amino]pyrimidin-4-yl]-4-pyridyl]oxy]-3-fluoro-phenyl]-2-chloro-benzenesulfonamide]	≤ 0.01
N[C@H]1CC[C@H](Nc2nccc(-c3cnccc3Oc3ccc(NS(=O)(=O)c4c(F)cccc4F)cc3F)n2)CC1 [Compound 26, N-[4-[[3-[2-[(1r,4r)(4-Aminocyclohexyl)amino]pyrimidin-4-yl]-4-pyridyl]oxy]-3-fluoro-phenyl] 2,6-difluoro-benzenesulfonamide]	≤ 0.01
COc1ccccc1S(=O)(=O)Nc1ccc(Oc2ccncc2-c2ccnc(N[C@H]3CC[C@H](N)CC3)n2)c(F)c1 [Compound 27, N-(4-((3-(2-((1r,4r)-4-aminocyclohexyl)amino)pyrimidin-4-yl)pyridin-4-yloxy)-3-fluorophenyl) 2-methoxybenzenesulfonamide]	0.011 to 0.1
COc1ccc(Br)cc1S(=O)(=O)Nc1ccc(Oc2ccncc2-c2ccnc(N[C@H]3CC[C@H](N)CC3)n2)c(F)c1 [Compound 28, N-(4-((3-(2-((1r,4r)-4-aminocyclohexyl)amino)pyrimidin-4-yl)pyridin-4-yloxy)-3-fluorophenyl) 5-bromo-2-methoxybenzenesulfonamide]	0.1 to 1
N[C@H]1CC[C@H](Nc2nccc(-c3cnccc3Oc3ccc(NS(=O)(=O)c4cccs4)cc3F)n2)CC1 [Compound 29]	0.011 to 0.1
N#Cc1ccc(S(=O)(=O)Nc2ccc(Oc3ccncc3-c3ccnc(N[C@H]4CC[C@H](N)CC4)n3)c(F)c2)cc1 [Compound 30, N-(4-((3-(2-((1r,4r)-4-aminocyclohexyl)amino)pyrimidin-4-yl)pyridin-4-yloxy)-3-fluorophenyl) 4-cyanobenzenesulfonamide]	0.1 to 1
N[C@H]1CC[C@H](Nc2nccc(-c3cnccc3Oc3ccc(NS(=O)(=O)c4ccccc4)c(C(F)(F)F)c3)n2)CC1 [Compound 32, N-(4-((3-(2-(((1r,4r)-4-Aminocyclohexyl)amino)pyrimidin-4-yl)pyridin-4-yl)oxy)-2-(trifluoromethyl)phenyl) benzenesulfonamide]	0.1 to 1

Further lines, results first:

Kd [µM]	Compound
0.011 to 0.1	N[C@H]1CC[C@H](Nc2nccc(-c3ccccc3Oc3ccc(NS(=O)(=O)c4ccccc4)cc3F)n2)CC1 [Compound 1, N-[4-[2-[2-[(1r,4r)(4-Aminocyclohexyl)amino]pyrimidin-4-yl]phenoxy]-3-fluoro-phenyl] benzenesulfonamide]
1 to 5	O=S(=O)(Nc1ccc(Oc2ccccc2-c2ccnc(N[C@H]3CCCNC3)n2)c(F)c1)c1ccccc1 [Compound 2, N-[3-Fluoro-4-[2-[2-[[(3S)-3-piperidyl]amino]pyrimidin-4-yl]phenoxy]phenyl] benzenesulfonamide]
0.011 to 0.1	N[C@H]1CC[C@H](Nc2nccc(-c3ccccc3Oc3ccc(NS(=O)(=O)c4ccccc4Cl)cc3F)n2)CC1 [Compound 3, N-[4-[2-[2-[(1r,4r)(4-Aminocyclohexyl)amino]pyrimidin-4-yl]phenoxy]-3-fluorophenyl] 2-chlorobenzenesulfonamide]
0.1 to 1	N[C@H]1CC[C@H](Nc2nccc(-c3ccccc3Oc3ccc(NS(=O)(=O)c4cccc5ccccc45)cc3F)n2)CC1 [Compound 4, N-[4-[2-[2-[(1r,4r)(4-Aminocyclohexyl)amino]pyrimidin-4-yl]phenoxy]-3-fluorophenyl] naphthalene-1-sulfonamide]
≤ 0.01	O=S(=O)(Nc1ccc(Oc2ccccc2-c2ccnc(N[C@H]3CCCNC3)n2)c(F)c1)c1ccccc1Cl [Compound 5, N-[3-Fluoro-4-[2-[2-[[(3S)-3-piperidyl]amino]pyrimidin-4-yl]phenoxy]phenyl] 2-chlorobenzenesulfonamide]
0.1 to 1	O=S(=O)(Nc1ccc(Oc2ccccc2-c2ccnc(N[C@H]3CCCNC3)n2)c(F)c1)c1cccc2ccccc12 [Compound 6, N-[3-Fluoro-4-[2-[2-[[(3S)-3-piperidyl]amino]pyrimidin-4-yl]phenoxy]phenyl] naphthalene-1-sulfonamide]
0.011 to 0.1	Cc1ccc(Oc2ccc(NS(=O)(=O)c3ccccc3Cl)cc2F)c(-c2ccnc(N[C@H]3CC[C@H](N)CC3)n2)c1 [Compound 7, N-[4-[2-[2-[(1r,4r)(4-Aminocyclohexyl)amino]pyrimidin-4-yl]-4-methylphenoxy]-3-fluorophenyl] 2-chlorobenzenesulfonamide]
0.011 to 0.1	Cc1ccc(-c2ccnc(N[C@H]3CC[C@H](N)CC3)n2)c(Oc2ccc(NS(=O)(=O)c3ccccc3Cl)cc2F)c1 [Compound 9, N-[4-[2-[2-[(1r,4r)(4-Aminocyclohexyl)amino]pyrimidin-4-yl]-5-methylphenoxy]-3-fluorophenyl] 2-chlorobenzenesulfonamide]
0.011 to 0.1	N#Cc1ccc(Oc2ccc(NS(=O)(=O)c3ccccc3Cl)cc2F)c(-c2ccnc(N[C@H]3CC[C@H](N)CC3)n2)c1 [Compound 10, N-[4-[2-[2-[(1r,4r)(4-Aminocyclohexyl)amino]pyrimidin-4-yl]-4-cyanophenoxy]-3-fluorophenyl] 2-chlorobenzenesulfonamide]
0.011 to 0.1	N[C@H]1CC[C@H](Nc2nccc(-c3ccc(I)cc3Oc3ccc(NS(=O)(=O)c4ccccc4Cl)cc3F)n2)CC1 [Compound 16, N-[4-[2-[2-[(1r,4r)(4-Aminocyclohexyl)amino]pyrimidin-4-yl]-5-iodophenoxy]-3-fluorophenyl] 2-chlorobenzenesulfonamide]
0.011 to 0.1	CCc1ccc(-c2ccnc(N[C@H]3CC[C@H](N)CC3)n2)c(Oc2ccc(NS(=O)(=O)c3ccccc3Cl)cc2F)c1 [Compound 17, N-[4-[2-[2-[(1r,4r)(4-Aminocyclohexyl)amino]pyrimidin-4-yl]-5-ethylphenoxy]-3-fluorophenyl] 2-chlorobenzenesulfonamide]
> 5	N[C@H]1CC[C@H](Nc2nccc(-c3ccc(-c4ccccc4)cc3Oc3ccc(NS(=O)(=O)c4ccccc4Cl)cc3F)n2)CC1 [Compound 18, N-[4-[2-[2-[(1r,4r)(4-Aminocyclohexyl)amino]pyrimidin-4-yl]-5-phenylphenoxy]-3-fluorophenyl] 2-chlorobenzenesulfonamide]
0.011 to 0.1	C=Cc1ccc(-c2ccnc(N[C@H]3CC[C@H](N)CC3)n2)c(Oc2ccc(NS(=O)(=O)c3ccccc3Cl)cc2F)c1 [Compound 21, N-[4-[2-[2-[(1r,4r)(4-Aminocyclohexyl)amino]pyrimidin-4-yl]-5-ethenylphenoxy]-3-fluorophenyl] 2-chlorobenzenesulfonamide]
≤ 0.01	N[C@H]1CC[C@H](Nc2nccc(-c3cc4ccccc4cc3Oc3ccc(NS(=O)(=O)c4ccccc4Cl)cc3F)n2)CC1 [Compound 23, N-[4-[2-[2-[(1r,4r)(4-Aminocyclohexyl)amino]pyrimidin-4-yl]naphthyl-3-oxy]-3-fluorophenyl] 2-chlorobenzenesulfonamide]
0.011 to 0.1	O=S(=O)(Nc1ccc(Oc2ccncc2-c2ccnc(N[C@H]3CCCNC3)n2)cc1F)c1ccccc1Cl [Compound 25, N-[2-Fluoro-4-[[3-[2-[[(3S)-3-piperidyl]amino]pyrimidin-4-yl]-4-pyridyl]oxy]phenyl] 2-chlorobenzenesulfonamide]
0.011 to 0.1	N[C@H]1CC[C@H](Nc2nccc(-c3cnccc3Oc3ccc(NS(=O)(=O)c4csc5ccccc45)cc3F)n2)CC1 [Compound 31, N-(4-((3-(2-((1r,4r)-4-aminocyclohexyl)amino)pyrimidin-4-yl)pyridin-4-yloxy)-3-fluorophenyl) benzo[b]thiophene-3-sulfonamide]

From US20260234112A1, “COMPOUNDS, COMPOSITIONS, AND METHODS OF USE THEREOF” (Type6 Therapeutics, Inc., priority 2023, published 2026)
